Reference: patent US10251408B2, “Catechin function enhancement method” (KYUSHU UNIVERSITY, NATIONAL UNIVERSITY CORPORATION, priority 2014, dated 2019)

Columns and labels:
[1] = test system: 3-hydroxy-3-methyl-glutaryl-CoA reductase (HMGCR); assay: Liver HMGCR mRNA by real-time PCR in HF/HS diet-fed mice; type: in vivo, mouse; settings: HF/HS diet-fed C57BL/6J mice; Yabukita 0.2% and/or eriodictyol 0.45 g/kg diet; 8 weeks; FIG. 6
Excerpt: Male C57BL/6J mice at 12 weeks of age were preliminarily kept for 1 week and then divided into 5 groups such that the average body weight was equal in all groups, i.e., a control (AIN-93G-based diet) group, a HF/HS (high-fat high-sucrose diet) group, a Yabukita (0.2%) (HF/HS+Yabukita) group, an eriodictyol (HF/HS+eriodictyol) group, and a Yabukita+eriodictyol (HF/HS+Yabukita+eriodictyol) group. A feed supplemented with Yabukita (0.2%) and eriodictyol (0.45 g/kg diet) was given to the mice. The feed was given in an amount of 4 g/day and the mice were kept for 8 weeks under ad libitum drinking conditions. After being fasted for 16 hours, the mice were sacrificed by abdominal aortic puncture under isoflurane anesthesia. […] Yabukita and eriodictyol were examined for their effect on cholesterol metabolism-related gene expression in the liver of high-fat high-sucrose diet-fed obese model mice. C57BL/6J mice were preliminarily kept for 1 week and then divided into the respective groups such that the average body weight was equal in all groups. Each feed was given in an amount of 4 g/day and the mice were kept for 8 weeks under ad libitum drinking conditions. After being fasted for 16 hours, the mice were sacrificed by abdominal aortic puncture under isoflurane anesthesia.

[2] = test system: Human multiple myeloma cell line U266; assay: Cancer cell death induction, viable cells by trypan blue assay (96-well plate, FIG. 9); type: cell-based; settings: 96 hours, in combination with EGCG, EGCG 3″Me or green tea extract
Method: Human multiple myeloma cell line U266 was subcultured and maintained in RPMI 1640 medium supplemented with 10% FCS under conditions of 37° C. and water vapor-saturated 5% CO2. The cells were maintained in the logarithmic growth phase. The RPMI 1640 medium used for culture was prepared as follows: per liter of ultrapure water, RPMI 1640 medium (10.4 g), HEPES (2.38 g), injectable penicillin G potassium (100,000 units), streptomycin sulfate injectable (100 mg) and NaHCO3 (2.0 g) were suspended and then filter-sterilized.
The lemon peel extract used in the experiment was prepared as follows. Peels (100 g) were collected with a grater from 6 lemons and 100% EtOH (100 mL) was added thereto, followed by mashing with a mortar. The mashed mixture was further strained through gauze to remove fibers and then filtered by gravity using a #1 paper filter and a funnel to remove precipitates, followed by centrifugation at 12000×g to collect the supernatant. The resulting ethanol extract of lemon was evaporated with an evaporator to volatilize the solvent, thereby obtaining an ethanol-extracted lemon fraction. This ethanol-extracted lemon fraction was dissolved again in DMSO to give a lemon extract. […] After culture, viable cells were counted by trypan blue assay.
To evaluate the effect of combined use of EGCG or a structural analog thereof or an EGCG-containing naturally occurring product and eriodictyol or a structural analog thereof or an eriodictyol-containing naturally occurring product, human multiple myeloma cell line U266 was adjusted to 5×10^4 cells/mL and seeded in a 96-well plate, and then cultured for 96 hours in the presence of EGCG and eriodictyol added at a final concentration of 5 μM each. After culture for 96 hours, viable cells were counted by trypan blue assay.

[3] = test system: high-fat high-sucrose diet-fed obese model mice; assay: High-fat high-sucrose diet-fed mice: body weight, serum total cholesterol, LDL; type: in vivo, mouse; settings: C57BL/6J mice, Yabukita 0.2% and/or eriodictyol 0.45 g/kg diet, 8 weeks, FIG. 5
Excerpt: Male C57BL/6J mice at 12 weeks of age were preliminarily kept for 1 week and then divided into 5 groups such that the average body weight was equal in all groups, i.e., a control (AIN-93G-based diet) group, a HF/HS (high-fat high-sucrose diet) group, a Yabukita (0.2%) (HF/HS+Yabukita) group, an eriodictyol (HF/HS+eriodictyol) group, and a Yabukita+eriodictyol (HF/HS+Yabukita+eriodictyol) group. A feed supplemented with Yabukita (0.2%) and eriodictyol (0.45 g/kg diet) was given to the mice. The feed was given in an amount of 4 g/day and the mice were kept for 8 weeks under ad libitum drinking conditions. After being fasted for 16 hours, the mice were sacrificed by abdominal aortic puncture under isoflurane anesthesia. The collected blood samples were allowed to stand at 37° C. for 2 hours to cause coagulation and then centrifuged at 4° C. at 2000×g for 15 minutes to collect serum fractions. The values of serum total cholesterol and LDL were measured. […] Yabukita and eriodictyol were examined for their effect on obesity in high-fat high-sucrose diet-fed obese model mice. Male C57BL/6J mice at 12 weeks of age were preliminarily kept for 1 week and then divided into the respective groups such that the average body weight was equal in all groups. Each feed was given in an amount of 4 g/day and the mice were kept for 8 weeks under ad libitum drinking conditions. After being measured for their body weight, the mice were fasted for 16 hours and then sacrificed by abdominal aortic puncture under isoflurane anesthesia. Blood samples collected by puncture were allowed to stand at 37° C. for 2 hours to cause coagulation and then centrifuged at 4° C. at 2000×g for 15 minutes to collect serum fractions. The values of serum total cholesterol and LDL were measured.

O=C1C[C@@H](c2ccc(O)c(O)c2)Oc2cc(O)cc(O)c21 [eriodictyol]
mRNA expression level of HMGCR in the liver [1]: no effect
enhancement of the anticancer effect (viable cells) of EGCG, EGCG 3″Me or a green tea extract [2]: remarkably enhance the anticancer effect
high-fat high-sucrose diet-induced increase in body weight [3]: no effect
high-fat high-sucrose diet-induced increase in serum cholesterol value [3]: no effect
high-fat high-sucrose diet-induced increase in LDL value ([3]; serum): no effect
